A melting point of 183 °C was found for `CCn1ccc2c(Nc3ccc(Cl)cc3)nc(C#N)nc21` [Example 27, 4-[(4-Chlorophenyl)amino]-7-ethyl-7H-pyrrolo[2,3-d]pyrimidine-2-carbonitrile] in this work.
